tested on: HIV-IIIb; test: Test A: Antiviral assay in MT4 cells; type: cell-based, HIV-1; settings: Human immunodeficiency virus 1, IIIB, MT4, 120 h, read-out: % inhibition at 2 μM, percent inhibition of virus-induced cell killing, from dose response curve at 2 uM drug; MT-4 cells infected with HIV-IIIb, 5 days, CellTiter-Glo

| SMILES | inhibition at 2 µM |
| --- | --- |
| NC(=O)c1cc(-c2cccnc2[C@H](Cc2cc(F)cc(F)c2)NC(=O)Cn2nc(C(F)(F)F)c3c2C[C@H]2C[C@@H]32)ccc1F (single isomer, unassigned) [Example 173] | 94% |
| NC(=O)c1cc(-c2cccnc2[C@H](Cc2cc(F)cc(F)c2)NC(=O)Cn2nc(C(F)(F)F)c3c2C[C@@H]2C[C@H]32)ccc1F (single isomer, unassigned) [Example 174] | 71% |
| NC(=O)c1cc(-c2cccnc2[C@H](Cc2cc(F)cc(F)c2)NC(=O)Cn2nc(C(F)F)c3c2C(F)(F)C2CC32)ccc1F (single isomer, unassigned) [Example 215] | 80% |
| NC(=O)c1cccc(-c2cccnc2[C@H](Cc2cc(F)cc(F)c2)NC(=O)Cc2c[nH]c3ccc(O)cc23)c1 [Example 39, (S)-3-(2-(2-(3,5-difluorophenyl)-1-(2-(5-hydroxy-1H-indol-3-yl)acetamido)ethyl)pyridin-3-yl)benzamide] | 99% |
| NC(=O)c1cccc(-c2cccnc2[C@H](Cc2cc(F)cc(F)c2)NC(=O)Cc2c[nH]c3ccc(F)cc23)c1 [Example 50D, (S)-3-(2-(2-(3,5-difluorophenyl)-1-(2-(5-fluoro-1H-indol-3-yl)acetamido)ethyl)pyridin-3-yl)benzamide] | 106% |
| NC(=O)c1cc(-c2cccnc2[C@H](Cc2cc(F)cc(F)c2)NC(=O)Cn2nc(C(F)F)c3c2C(F)(F)C2CC32)ccc1F (stereo partly drawn) [Example 60H, 5-(2-((1S)-1-(2-(3-(difluoromethyl)-5,5-difluoro-3b,4,4a,5-tetrahydro-1H-cyclopropa[3,4]cyclopenta[1,2-c]pyrazol-1-yl)acetamido)-2-(3,5-difluorophenyl)ethyl)pyridin-3-yl)-2-fluorobenzamide] | 97% |
| NC(=O)c1cc(-c2cccnc2[C@H](Cc2cc(F)cc(F)c2)NC(=O)Cn2nc(C(F)F)c3c2C2CCC3C2)ccc1F (stereo partly drawn) [Example 83, (S)-5-(2-(2-(3,5-difluorophenyl)-1-(2-(4,5,6,7-tetrahydro-3-difluoromethyl-4,7-(methano)indazol-1-yl)acetamido)ethyl)pyridin-3-yl)-2-fluorobenzamide] | 92% |
| NC(=O)c1cc(-c2cccnc2[C@H](Cc2cc(F)cc(F)c2)NC(=O)Cn2nc(C(F)(F)F)c3c2CCCC3(F)F)ccc1F [Example 102D, (S)-5-(2-(1-(2-(4,4-difluoro-3-(trifluoromethyl)-4,5,6,7-tetrahydro-1H-indazol-1-yl)acetamido)-2-(3,5-difluorophenyl)ethyl)pyridin-3-yl)-2-fluorobenzamide] | 50% |
| NC(=O)c1cc(-c2cccnc2[C@H](Cc2cc(F)cc(F)c2)NC(=O)Cn2nc(C(F)(F)F)c3c2CCOC3)ccc1F [Example 112B, (S)-5-(2-(2-(3,5-difluorophenyl)-1-(2-(3-(trifluoromethyl)-6,7-dihydropyrano[4,3-c]pyrazol-1(4H)-yl)acetamido)ethyl)pyridin-3-yl)-2-fluorobenzamide] | 28% |
| NC(=O)c1cc(-c2cccnc2[C@H](Cc2cc(F)cc(F)c2)NC(=O)Cn2nc(C(F)(F)F)c3c2CC2CC32)ccc1F (stereo partly drawn) [Example 122G, 5-(2-((1S)-2-(3,5-difluorophenyl)-1-(2-(3-(trifluoromethyl)-3b,4,4a,5-tetrahydro-1H-cyclopropa[3,4]cyclopenta[1,2-c]pyrazol-1-yl)acetamido)ethyl)pyridin-3-yl)-2-fluorobenzamide] | 101% |
| NC(=O)c1cc(-c2cccnc2[C@H](Cc2cc(F)cc(F)c2)NC(=O)Cn2nc(C(F)(F)F)c3c2CCC3)ccc1F [Example 134, (S)-5-(2-(2-(3,5-difluorophenyl)-1-(2-(3-(trifluoromethyl)-5,6-dihydrocyclopenta[c]pyrazol-1(4H)-yl)acetamido)ethyl)pyridin-3-yl)-2-fluorobenzamide] | 98% |
| NC(=O)c1cc(-c2cccnc2[C@H](Cc2cc(F)cc(F)c2)NC(=O)Cn2nc(C(F)(F)F)c3c2C2CC2C3)ccc1F (stereo partly drawn) [Example 169E, 5-(2-((1S)-2-(3,5-difluorophenyl)-1-(2-(3-(trifluoromethyl)-4,4-a,5,5a-tetrahydro-1H-cyclopropa[4,5]cyclopenta[1,2-c]pyrazol-1-yl)acetamido)ethyl)pyridin-3-yl)-2-fluorobenzamide] | 94% |
| NC(=O)c1cc(-c2cccnc2[C@H](Cc2cc(F)cc(F)c2)NC(=O)Cn2nc(C(F)(F)F)c3c2C(F)(F)C2CC32)ccc1F (stereo partly drawn) [Example 181E, 5-(2-((1S)-1-(2-(5,5-difluoro-3-(trifluoromethyl)-3b,4,4a,5-tetrahydro-1H-cyclopropa[3,4]cyclopenta[1,2-c]pyrazol-1-yl)acetamido)-2-(3,5-difluorophenyl)ethyl)pyridin-3-yl)-2-fluorobenzamide] | 99% |
| NC(=O)c1cc(-c2cccnc2[C@H](Cc2cc(F)cc(F)c2)NC(=O)Cn2nc(C(F)(F)F)c3ccccc32)ccc1F [Example 250, (S)-5-(2-(2-(3,5-difluorophenyl)-1-(2-(3-(trifluoromethyl)-1H-indazol-1-yl)acetamido)ethyl)pyridin-3-yl)-2-fluorobenzamide] | 19% |
| O=C(Cc1c[nH]c2ccc(O)cc12)N[C@H](Cc1cc(F)cc(F)c1)c1ncncc1-c1ccc(Cl)cc1 [Example 284, (R)—N-(1-(5-(4-chlorophenyl)pyrimidin-4-yl)-2-(3,5-difluorophenyl)ethyl)-2-(5-hydroxy-1H-indol-3-yl)acetamide] | 50% |
| NC(=O)c1cc(-c2cccnc2[C@H](Cc2cc(F)cc(F)c2)NC(=O)Cn2nc(C(F)(F)F)c3c2C(F)(F)CCC3)ccc1F [Example 311B, (S)-5-(2-(1-(2-(7,7-difluoro-3-(trifluoromethyl)-4,5,6,7-tetrahydro-1H-indazol-1-yl)acetamido)-2-(3,5-difluorophenyl)ethyl)pyridin-3-yl)-2-fluorobenzamide] | 97% |
| O=C(Cc1c[nH]c2ccc(O)cc12)N[C@@H](Cc1cc(F)cc(F)c1)c1ncncc1-c1ccc(Cl)cc1 [Example 316, (S)—N-(1-(5-(4-chlorophenyl)pyrimidin-4-yl)-2-(3,5-difluorophenyl)ethyl)-2-(5-hydroxy-1H-indol-3-yl)acetamide] | 100% |
| NC(=O)c1cc(-c2cccnc2[C@H](Cc2cc(F)cc(F)c2)NC(=O)Cn2nc(C(F)F)c3c2C(F)(F)CCC3(F)F)ccc1F [Example 344, (S)-5-(2-(1-(2-(3-(difluoromethyl)-4,4,7,7-tetrafluoro-4,5,6,7-tetrahydro-1H-indazol-1-yl)acetamido)-2-(3,5-difluorophenyl)ethyl)pyridin-3-yl)-2-fluorobenzamide] | 93% |
| NC(=O)c1cc(-c2cccnc2[C@H](Cc2cc(F)cc(F)c2)NC(=O)Cn2nc(C(F)(F)F)c3c2CNCC3)ccc1F [Example 352, (S)-5-(2-(2-(3,5-difluorophenyl)-1-(2-(3-(trifluoromethyl)-4,5,6,7-tetrahydro-1H-pyrazolo[3,4-c]pyridin-1-yl)acetamido)ethyl)pyridin-3-yl)-2-fluorobenzamide] | 16% |
| NC(=O)c1cccc(-c2cccnc2[C@H](Cc2cc(F)cc(F)c2)NC(=O)Cn2ccc3ccccc32)c1 [Example 426, (S)-3-(2-(1-(2-(1H-indol-1-yl)acetamido)-2-(3,5-difluorophenyl)ethyl)pyridin-3-yl)benzamide] | 19% |
| O=C(Cc1c[nH]c2ccc(O)cc12)NC(Cc1cc(F)cc(F)c1)c1nccnc1-c1ccc(Cl)cc1 (stereo not shown) [Example 443I, N-(1-(3-(4-chlorophenyl)pyrazin-2-yl)-2-(3,5-difluorophenyl)ethyl)-2-(5-hydroxy-1H-indol-3-yl)acetamide] | 82% |
| NC(=O)c1cc(-c2cccnc2[C@H](Cc2cc(F)cc(F)c2)NC(=O)Cn2ccc(C(F)(F)F)n2)ccc1F [Example 455, (S)-5-(2-(2-(3,5-difluorophenyl)-1-(2-(3-(trifluoromethyl)-1H-pyrazol-1-yl)acetamido)ethyl)pyridin-3-yl)-2-fluorobenzamide] | 4% |
| NC(=O)c1cc(-c2cccnc2[C@H](Cc2cc(F)cc(F)c2)NC(=O)Cn2nc(C(F)(F)F)c3c2C2CC2C3(F)F)ccc1F (stereo partly drawn) [Example 462J, 5-(2-((1S)-1-(2-(4,4-difluoro-3-(trifluoromethyl)-4,4-a,5,5a-tetrahydro-1H-cyclopropa[4,5]cyclopenta[1,2-c]pyrazol-1-yl)acetamido)-2-(3,5-difluorophenyl)ethyl)pyridin-3-yl)-2-fluorobenzamide] | 2% |
| NC(=O)c1cc(-c2cccnc2[C@H](Cc2cc(F)cc(F)c2)NC(=O)Cn2nc(C(F)F)c(C3CC3)c2C(F)F)ccc1F [Example 562, (S)-5-(2-(1-(2-(4-cyclopropyl-3,5-bis(difluoromethyl)-1H-pyrazol-1-yl)acetamido)-2-(3,5-difluorophenyl)ethyl)pyridin-3-yl)-2-fluorobenzamide] | 42% |

same assay, conditions: percent inhibition of virus-induced cell killing, from dose response curve at 2 uM drug; MT-4 cells infected with HIV-IIIb, 5 days, CellTiter-Glo

| SMILES | % inhibition at 2 μM |
| --- | --- |
| NC(=O)c1cc(-c2cccnc2[C@H](Cc2cc(F)cc(F)c2)NC(=O)Cn2nc(C(F)F)c3c2C(F)(F)C2CC32)ccc1F (single isomer, unassigned) [Example 216] | 86% |
| NC(=O)c1cc(-c2cccnc2[C@H](Cc2cc(F)cc(F)c2)NC(=O)Cn2nc(C(F)(F)F)c3c2C(F)(F)C2CC32)ccc1F (single isomer, unassigned) [Example 449] | 94% |
| NC(=O)c1cc(-c2cccnc2[C@H](Cc2cc(F)cc(F)c2)NC(=O)Cn2nc(C(F)(F)F)c3c2C(F)(F)C2CC32)ccc1F (single isomer, unassigned) [Example 450] | 33% |
| NC(=O)c1cc(-c2cccnc2[C@H](Cc2cc(F)cc(F)c2)NC(=O)Cn2nc(C(F)(F)F)c3c2[C@@H]2C[C@@H]2C3)ccc1F [Example 187, 5-(2-((S)-2-(3,5-difluorophenyl)-1-(2-((4aR,5aR)-3-(trifluoromethyl)-4,4-a,5,5a-tetrahydro-1H-cyclopropa[4,5]cyclopenta[1,2-c]pyrazol-1-yl)acetamido)ethyl)pyridin-3-yl)-2-fluorobenzamide] | 31% |
